Calls of active or inactive are those of the source. For most assays here, no stated cut-off is given here; in the data, actives have a measured Kd and inactives only a lower limit.
Key:
[1] = biological target: TGF-beta receptor type-2 (Homo sapiens, UniProt P37173)
[2] = biological target: Cyclin-dependent kinase 5 (Homo sapiens, UniProt Q00535)
[3] = biological target: T1, Receptor-type tyrosine-protein kinase FLT3 (Homo sapiens, UniProt P36888)
T1 sequence (P36888 whole entry): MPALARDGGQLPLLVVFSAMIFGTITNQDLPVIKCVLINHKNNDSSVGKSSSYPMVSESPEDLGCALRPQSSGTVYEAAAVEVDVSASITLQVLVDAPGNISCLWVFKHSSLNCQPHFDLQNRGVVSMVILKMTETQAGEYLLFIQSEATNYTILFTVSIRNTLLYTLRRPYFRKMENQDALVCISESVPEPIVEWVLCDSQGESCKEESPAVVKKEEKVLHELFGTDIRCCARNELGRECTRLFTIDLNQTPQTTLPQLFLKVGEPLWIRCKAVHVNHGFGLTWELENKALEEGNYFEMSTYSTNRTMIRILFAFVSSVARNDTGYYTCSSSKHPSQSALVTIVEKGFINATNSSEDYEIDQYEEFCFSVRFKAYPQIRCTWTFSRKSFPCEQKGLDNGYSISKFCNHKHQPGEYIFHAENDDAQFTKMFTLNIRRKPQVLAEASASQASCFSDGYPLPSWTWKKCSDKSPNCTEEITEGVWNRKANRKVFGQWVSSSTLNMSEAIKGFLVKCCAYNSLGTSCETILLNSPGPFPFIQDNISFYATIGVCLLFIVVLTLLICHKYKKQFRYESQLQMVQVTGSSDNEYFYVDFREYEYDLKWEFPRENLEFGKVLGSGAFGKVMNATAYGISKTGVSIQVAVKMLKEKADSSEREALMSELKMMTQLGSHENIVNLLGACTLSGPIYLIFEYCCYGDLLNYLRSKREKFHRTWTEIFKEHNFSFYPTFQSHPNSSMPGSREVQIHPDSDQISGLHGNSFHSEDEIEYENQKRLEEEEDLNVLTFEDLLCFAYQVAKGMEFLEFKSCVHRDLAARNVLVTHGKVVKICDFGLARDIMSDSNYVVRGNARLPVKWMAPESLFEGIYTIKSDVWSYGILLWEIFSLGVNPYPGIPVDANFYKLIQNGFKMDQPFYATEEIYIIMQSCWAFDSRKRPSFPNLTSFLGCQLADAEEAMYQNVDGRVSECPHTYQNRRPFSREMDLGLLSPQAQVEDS

[4] = biological target: T2, Glycogen phosphorylase, liver form (Homo sapiens, UniProt P06737); format: subcellular, K-562, COLO 205, SK-N-BE(2) and MV-4-11, Cell lysate; settings: read-out: Kd apparent
T2 sequence (P06737 whole entry): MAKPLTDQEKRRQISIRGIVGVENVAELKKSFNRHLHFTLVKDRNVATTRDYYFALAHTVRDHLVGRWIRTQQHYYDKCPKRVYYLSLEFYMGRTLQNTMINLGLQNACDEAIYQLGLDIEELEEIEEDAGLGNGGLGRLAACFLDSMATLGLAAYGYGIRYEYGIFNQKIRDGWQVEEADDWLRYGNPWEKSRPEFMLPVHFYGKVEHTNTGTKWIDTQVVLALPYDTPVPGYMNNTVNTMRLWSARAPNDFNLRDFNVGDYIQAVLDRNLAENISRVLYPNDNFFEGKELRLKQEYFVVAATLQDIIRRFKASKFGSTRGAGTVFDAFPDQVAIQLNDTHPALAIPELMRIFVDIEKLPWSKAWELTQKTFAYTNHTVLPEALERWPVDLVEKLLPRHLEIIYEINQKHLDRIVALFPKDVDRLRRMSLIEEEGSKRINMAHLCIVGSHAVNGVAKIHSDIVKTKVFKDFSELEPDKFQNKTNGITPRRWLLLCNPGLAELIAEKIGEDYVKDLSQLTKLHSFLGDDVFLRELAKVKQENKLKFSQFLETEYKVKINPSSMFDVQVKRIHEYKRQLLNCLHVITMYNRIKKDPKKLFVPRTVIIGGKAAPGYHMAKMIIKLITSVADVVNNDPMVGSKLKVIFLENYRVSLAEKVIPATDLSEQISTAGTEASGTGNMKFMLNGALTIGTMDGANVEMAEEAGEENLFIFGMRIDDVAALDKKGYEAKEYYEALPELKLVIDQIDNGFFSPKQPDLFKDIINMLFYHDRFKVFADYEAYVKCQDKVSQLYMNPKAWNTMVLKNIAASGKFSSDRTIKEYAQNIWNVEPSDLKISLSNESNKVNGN

[5] = biological target: Rho-associated protein kinase 1 (Homo sapiens, UniProt Q13464)
Chain of Rho-associated protein kinase 1 (Q13464 whole entry, the tested form may be a part): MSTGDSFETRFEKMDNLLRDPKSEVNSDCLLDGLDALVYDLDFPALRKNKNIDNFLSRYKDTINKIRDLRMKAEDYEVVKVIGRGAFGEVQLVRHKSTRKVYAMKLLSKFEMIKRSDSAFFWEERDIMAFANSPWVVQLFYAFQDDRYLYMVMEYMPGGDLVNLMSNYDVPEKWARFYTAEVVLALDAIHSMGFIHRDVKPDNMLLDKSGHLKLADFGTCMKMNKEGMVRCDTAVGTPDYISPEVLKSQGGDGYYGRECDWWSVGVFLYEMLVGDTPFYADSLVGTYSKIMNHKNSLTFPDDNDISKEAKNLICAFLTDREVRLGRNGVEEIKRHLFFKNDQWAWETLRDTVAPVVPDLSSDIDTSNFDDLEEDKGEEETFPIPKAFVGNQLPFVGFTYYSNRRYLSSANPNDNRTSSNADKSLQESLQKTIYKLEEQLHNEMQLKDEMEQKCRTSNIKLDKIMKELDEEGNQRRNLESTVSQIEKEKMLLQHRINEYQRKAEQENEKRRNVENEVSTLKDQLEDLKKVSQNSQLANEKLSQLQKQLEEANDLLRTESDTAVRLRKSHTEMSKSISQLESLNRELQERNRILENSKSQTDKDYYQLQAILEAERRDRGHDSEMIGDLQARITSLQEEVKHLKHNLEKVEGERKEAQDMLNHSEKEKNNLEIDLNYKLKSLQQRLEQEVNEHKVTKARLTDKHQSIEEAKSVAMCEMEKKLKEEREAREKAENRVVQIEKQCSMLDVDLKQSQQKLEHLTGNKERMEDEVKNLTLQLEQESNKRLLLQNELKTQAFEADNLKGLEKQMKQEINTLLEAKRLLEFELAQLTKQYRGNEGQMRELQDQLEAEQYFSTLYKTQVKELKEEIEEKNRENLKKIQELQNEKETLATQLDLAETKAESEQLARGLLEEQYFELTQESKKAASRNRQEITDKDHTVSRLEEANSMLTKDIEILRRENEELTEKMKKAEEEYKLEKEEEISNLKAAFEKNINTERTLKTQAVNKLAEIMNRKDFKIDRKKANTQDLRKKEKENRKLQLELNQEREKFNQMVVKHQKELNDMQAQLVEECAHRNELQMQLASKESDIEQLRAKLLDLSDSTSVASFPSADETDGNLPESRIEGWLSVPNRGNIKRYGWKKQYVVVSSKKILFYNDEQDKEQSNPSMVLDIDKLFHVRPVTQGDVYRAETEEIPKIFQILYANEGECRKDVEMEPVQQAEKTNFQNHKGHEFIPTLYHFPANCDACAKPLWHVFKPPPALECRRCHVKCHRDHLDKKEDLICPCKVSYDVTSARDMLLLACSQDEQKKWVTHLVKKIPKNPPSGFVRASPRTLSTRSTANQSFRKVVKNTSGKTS

[6] = biological target: T3, Discoidin domain-containing receptor 2 (Homo sapiens, UniProt Q16832)
T3 sequence (Q16832 whole entry): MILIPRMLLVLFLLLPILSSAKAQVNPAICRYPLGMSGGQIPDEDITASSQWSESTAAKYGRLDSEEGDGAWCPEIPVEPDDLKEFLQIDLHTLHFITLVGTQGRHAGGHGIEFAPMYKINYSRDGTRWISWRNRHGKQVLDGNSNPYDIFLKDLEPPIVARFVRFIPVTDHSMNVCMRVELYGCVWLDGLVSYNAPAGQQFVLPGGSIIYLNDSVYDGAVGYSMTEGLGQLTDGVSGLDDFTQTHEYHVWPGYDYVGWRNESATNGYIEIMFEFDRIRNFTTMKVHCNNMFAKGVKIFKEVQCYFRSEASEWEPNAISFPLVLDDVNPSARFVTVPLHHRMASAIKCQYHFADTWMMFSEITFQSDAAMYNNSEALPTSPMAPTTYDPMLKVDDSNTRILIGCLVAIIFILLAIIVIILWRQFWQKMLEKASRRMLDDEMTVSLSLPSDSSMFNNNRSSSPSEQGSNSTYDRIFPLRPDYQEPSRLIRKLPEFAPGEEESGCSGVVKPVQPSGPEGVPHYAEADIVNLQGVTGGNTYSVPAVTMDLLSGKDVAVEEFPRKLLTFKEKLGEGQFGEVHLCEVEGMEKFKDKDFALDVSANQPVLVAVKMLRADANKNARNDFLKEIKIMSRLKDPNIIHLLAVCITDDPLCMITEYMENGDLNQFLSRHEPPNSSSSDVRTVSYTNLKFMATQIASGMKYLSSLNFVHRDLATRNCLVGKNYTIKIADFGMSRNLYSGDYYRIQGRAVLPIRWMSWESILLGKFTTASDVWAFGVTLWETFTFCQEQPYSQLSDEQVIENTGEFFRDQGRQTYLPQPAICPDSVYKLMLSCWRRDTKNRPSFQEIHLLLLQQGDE

Chain of TGF-beta receptor type-2 (P37173 whole entry): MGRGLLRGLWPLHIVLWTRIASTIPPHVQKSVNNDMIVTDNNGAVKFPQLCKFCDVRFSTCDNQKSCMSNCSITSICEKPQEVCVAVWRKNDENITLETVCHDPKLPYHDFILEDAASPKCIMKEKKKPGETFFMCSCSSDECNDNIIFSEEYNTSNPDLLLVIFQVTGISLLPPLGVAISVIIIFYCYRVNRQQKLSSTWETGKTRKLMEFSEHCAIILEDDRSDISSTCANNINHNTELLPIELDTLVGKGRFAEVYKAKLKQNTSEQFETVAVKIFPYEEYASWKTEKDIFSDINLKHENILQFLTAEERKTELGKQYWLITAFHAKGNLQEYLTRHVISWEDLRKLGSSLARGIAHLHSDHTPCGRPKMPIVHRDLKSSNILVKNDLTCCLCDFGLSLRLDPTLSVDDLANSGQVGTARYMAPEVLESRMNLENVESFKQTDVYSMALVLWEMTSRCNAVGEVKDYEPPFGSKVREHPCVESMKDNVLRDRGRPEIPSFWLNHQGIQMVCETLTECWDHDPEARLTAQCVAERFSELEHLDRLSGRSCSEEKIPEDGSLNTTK
Chain of Cyclin-dependent kinase 5 (Q00535 whole entry): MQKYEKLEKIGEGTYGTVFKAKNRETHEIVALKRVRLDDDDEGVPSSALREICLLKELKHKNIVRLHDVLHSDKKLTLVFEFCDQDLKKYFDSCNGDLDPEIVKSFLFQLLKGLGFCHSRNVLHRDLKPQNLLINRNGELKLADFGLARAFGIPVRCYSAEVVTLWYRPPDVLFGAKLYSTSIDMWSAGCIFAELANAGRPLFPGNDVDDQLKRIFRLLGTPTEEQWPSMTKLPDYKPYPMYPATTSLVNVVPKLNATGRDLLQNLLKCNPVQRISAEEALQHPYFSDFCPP

Structure (SMILES) | Kd [1] | Kd [2] | Kd [3] | Kd [4] | Kd [5] | Kd [6]
C[C@@H](NC(=O)c1ncnc(N)c1Cl)c1ncc(C(=O)Nc2cc(C(F)(F)F)c(Cl)cn2)s1 [TOVORAFENIB] | 1.64 µM | > 30 µM (inactive) | > 30 µM (inactive) | > 30 µM (inactive) | > 30 µM (inactive) | 0.227 µM (active)
Cc1cc(Nc2ncnc3ccc(NC4=NC(C)(C)CO4)cc23)ccc1Oc1ccn2ncnc2c1 [TUCATINIB] | > 30 µM (inactive) | > 30 µM (inactive) | > 30 µM (inactive) | > 30 µM (inactive) | > 30 µM (inactive) | > 30 µM (inactive)
CC(C)c1cc(CNc2nc(Nc3cc(C4CC4)[nH]n3)cc(N3CCN(C)CC3)n2)on1 [XL-228] | > 30 µM (inactive) | > 30 µM (inactive) | 0.005 µM (active) | > 30 µM (inactive) | > 30 µM (inactive) | 4.96 µM (active)
CN1C/C=C/CCOc2cccc(c2)-c2ccnc(n2)Nc2cccc(c2)C1 [ZOTIRACICLIB] | > 30 µM (inactive) | 0.93 µM (active) | 0.418 µM | > 30 µM (inactive) | 99.2 µM | > 30 µM (inactive)

Source: ChEMBL document CHEMBL3991601, “The target landscape of clinical kinase drugs” (Science, 2017)
